# From paper PMC4315428 (PLoS ONE, 2015)
# How the values were obtained:
# L-type Ca^2+ channel = format: cell-based, rat (Sprague-Dawley); details: 10 μM
# [1] = test system: tetrodotoxin-sensitive (TTX-S) sodium channels; details: read-out: IC50 value, TTX-S voltage-gated sodium channels; cited from earlier work
# T-type Ca^2+ channel = format: cell-based, rat (Sprague-Dawley); details: 10 μM
substance,measurement,setting,value
Hainantoxin-IV [HNTX-IV],effect on Ca^2+ currents (L-type),L-type Ca^2+ channel,"neither native HNTX-IV (Fig. 8A, 8B) nor rHNTX-IV (Fig. 8C, 8D) could cause obvious changes"
same,IC50,[1],0.034 µM
same,effect on Ca^2+ currents (T-type),T-type Ca^2+ channel,"neither native HNTX-IV (Fig. 8A, 8B) nor rHNTX-IV (Fig. 8C, 8D) could cause obvious changes"
